In brackets after ≈: the same amount, converted by molar mass.
Tests used:
[1] = test system: Sarcoma-180; test: Inhibition of DNA synthesis in mouse Sarcoma-180 cells at 8 uM incubated for 30 mins by [3H]-thymidine incorporation based scintillation counter analysis; assay type: functional; details: Sarcoma-180, 0.5 h
[2] = test system: Sarcoma-180; test: Antitumor activity against mouse Sarcoma-180 cells xenografted in Swiss mouse assessed as T/C ratio at 0.5 mg/kg, po daily measured upto 7 days; assay type: functional; details: time <= 7 day
[3] = test system: Sarcoma-180; test: Inhibition of RNA synthesis in mouse Sarcoma-180 cells at 8 uM incubated for 60 mins by [3H]-uridine incorporation based scintillation counter analysis; assay type: functional; details: Sarcoma-180, 1 h
[4] = Selectivity ratio of IC50 for cytotoxicity against human HeLa cells under hypoxic condition to IC50 for cytotoxicity against human HeLa cells under aerobic condition; assay type: functional
[5] = test system: HeLa; test: Cytotoxicity against human HeLa cells assessed as cell growth inhibition by MTT assay; assay type: functional, cell-based
[6] = test system: A-375; test: Cytotoxicity against human A-375 cells assessed as cell growth inhibition by MTT assay; assay type: functional, cell-based
[7] = test system: MCF7; test: Cytotoxicity against human MCF7 cells assessed as cell growth inhibition by MTT assay; assay type: functional, cell-based
[8] = test system: HL-60; test: Cytotoxicity against human HL-60 cells assessed as cell growth inhibition by MTT assay; assay type: functional, cell-based
[9] = test system: HCT-8; test: Cytotoxicity against human HCT-8 cells assessed as cell growth inhibition by MTT assay; assay type: functional, cell-based
[10] = test system: A549; test: Cytotoxicity against human A549 cells assessed as cell growth inhibition by MTT assay; assay type: functional, cell-based
[11] = test system: P388; test: Cytotoxicity against mouse P388 cells assessed as cell growth inhibition by MTT assay; assay type: functional, cell-based
[12] = test system: MCF7; test: Cytotoxicity against human MCF7 cells assessed as cell growth inhibition by CCK-8 assay; assay type: functional, cell-based
[13] = test system: Shigella dysenteriae; test: Antibacterial activity against Shigella dysenteriae assessed as inhibition of bacterial growth by two-fold serial dilution assay; assay type: functional
[14] = test system: Proteus vulgaris; test: Antibacterial activity against Proteus vulgaris assessed as inhibition of bacterial growth by two-fold serial dilution assay; assay type: functional
[15] = test system: Mus musculus; test: Antitumor activity against mouse H22 cells xenografted in Kunming mouse assessed as decrease in tumor growth at 5 mg/kg administered as single injection via caudal vein for 7 consecutive days; assay type: functional; parameters: scale not given: the % may be the effect or the level left
[16] = test system: HCT-116; test: Cytotoxicity against human HCT-116 cells assessed as inhibition of cell growth incubated for 24 hrs by XTT assay; assay type: functional, cell-based; details: HCT-116, 24 h
[17] = test system: PANC-1; test: Cytotoxicity against human PANC-1 cells assessed as inhibition of cell growth incubated for 24 hrs by XTT assay; assay type: functional, cell-based; details: PANC-1, 24 h
[18] = test system: Sarcoma-180; test: Antitumor activity against mouse Sarcoma-180 cells xenografted in Swiss mouse assessed as T/C ratio at 25 mg/kg, po daily measured upto 7 days; assay type: functional; details: time <= 7 day
[19] = test system: Ehrlich; test: Antitumor activity against mouse EAC cell xenografted in Swiss mouse assessed as T/C ratio at 25 mg/kg, po daily measured upto 7 days; assay type: functional; details: time <= 7 day
[20] = test system: A-375; test: Antiproliferative activity against human A-375 cells assessed as inhibition of cell proliferation by MTT assay; assay type: functional, cell-based
[21] = test system: P388; test: Antiproliferative activity against mouse P388 cells assessed as inhibition of cell proliferation by MTT assay; assay type: functional, cell-based
[22] = test system: HeLa; test: Antiproliferative activity against human HeLa cells assessed as inhibition of cell proliferation by MTT assay; assay type: functional, cell-based
[23] = test system: Sarcoma-180; test: Antitumor activity against mouse Sarcoma-180 cells xenografted in Swiss mouse assessed as T/C ratio at 40 mg/kg, po daily measured upto 7 days; assay type: functional; details: time <= 7 day
[24] = test system: Ehrlich; test: Antitumor activity against mouse EAC cell xenografted in Swiss mouse assessed as T/C ratio at 40 mg/kg, po daily measured upto 7 days; assay type: functional; details: time <= 7 day
[25] = test system: Staphylococcus aureus; test: Antibacterial activity against Staphylococcus aureus MTCC 96 assessed as inhibition of bacterial growth by agar well diffusion assay; assay type: functional
[26] = test system: Pseudomonas aeruginosa; test: Antibacterial activity against Pseudomonas aeruginosa MTCC 741 assessed as inhibition of bacterial growth by agar well diffusion assay; assay type: functional
[27] = test system: Staphylococcus epidermidis; test: Antibacterial activity against Staphylococcus epidermidis MTCC 435 assessed as inhibition of bacterial growth by agar well diffusion assay; assay type: functional
[28] = test system: Escherichia coli; test: Antibacterial activity against Escherichia coli MTCC 443 assessed as inhibition of bacterial growth by agar well diffusion assay; assay type: functional
[29] = test system: Calf thymus DNA; test: Binding affinity to calf thymus DNA assessed as DNA intercalation by measuring change in melting temperature by thermal denaturation assay; assay type: nucleic-acid assay; details: Bos taurus
[30] = test system: COLO 205; test: Cytotoxicity against human COLO 205 cells assessed as inhibition of cell growth incubated for 72 hrs by SRB assay; assay type: functional, cell-based; details: COLO 205, 72 h, pooled result: one value given for 7 cell lines, strains, targets or settings
[31] = test system: H22; test: Antiproliferative activity against mouse H22 cells assessed as inhibition of cell growth incubated for 48 hrs by MTT assay; assay type: functional, cell-based; details: H22, 48 h
[32] = test system: Bel-7402; test: Antiproliferative activity against human Bel-7402 cells assessed as inhibition of cell growth incubated for 48 hrs by MTT assay; assay type: functional, cell-based; details: Bel-7402, 48 h
[33] = test system: SMMC-7721; test: Antiproliferative activity against human SMMC-7721 cells assessed as inhibition of cell growth incubated for 48 hrs by MTT assay; assay type: functional, cell-based; details: SMMC-7721, 48 h
[34] = test system: HepG2; test: Antiproliferative activity against human HepG2 cells assessed as inhibition of cell growth incubated for 48 hrs by MTT assay; assay type: functional, cell-based; details: HepG2, 48 h
[35] = test system: HepG2; test: Antiproliferative activity against human HepG2 cells assessed as inhibition of cell proliferation incubated for 48 hrs by MTT assay; assay type: functional, cell-based; details: HepG2, 48 h
[36] = test system: K562; test: Antiproliferative activity against human K562 cells assessed as inhibition of cell proliferation incubated for 48 hrs by MTT assay; assay type: functional, cell-based; details: K562, 48 h
[37] = test system: HCT-116; test: Antiproliferative activity against human HCT-116 cells assessed as inhibition of cell proliferation incubated for 48 hrs by MTT assay; assay type: functional, cell-based; details: HCT-116, 48 h
[38] = test system: MDA-MB-231; test: Antiproliferative activity against human MDA-MB-231 cells assessed as inhibition of cell proliferation incubated for 48 hrs by MTT assay; assay type: functional, cell-based; details: MDA-MB-231, 48 h
[39] = test system: Mus musculus; test: Antitumor activity against mouse H22 cells xenografted in Kunming mouse assessed as decrease in tumor growth at 1 mg/kg administered as single injection via caudal vein for 7 consecutive days; assay type: functional; parameters: scale not given: the % may be the effect or the level left
[40] = test system: Staphylococcus aureus; test: Antibacterial activity against Staphylococcus aureus MTCC-737 assessed as inhibition of bacterial growth incubated for 24 hrs by two-fold serial dilution assay; assay type: functional
[41] = test system: Calf thymus DNA; test: Binding affinity to calf thymus DNA assessed as binding constant incubated for 30 mins by fluorescence based EtBr-displacement assay; assay type: nucleic-acid assay; details: Bos taurus
[42] = test system: Salmonella typhimurium; test: Antibacterial activity against Salmonella typhimurium MTCC-98 assessed as inhibition of bacterial growth incubated for 24 hrs by two-fold serial dilution assay; assay type: functional, Salmonella enterica subsp. enterica serovar Typhimurium; details: Salmonella enterica
[43] = test system: Escherichia coli; test: Antibacterial activity against Escherichia coli MTCC-739 assessed as inhibition of bacterial growth incubated for 24 hrs by two-fold serial dilution assay; assay type: functional

Compound: CN(C)CCN1C(=O)c2cccc3cc([N+](=O)[O-])cc(c23)C1=O [MITONAFIDE]
- inhibition at 8 µM [1]: 99%
- T/C [2]: 187%
- inhibition at 8 µM [3]: 94%

Compound: COc1ccc2c(CC(=O)OCCN3C(=O)c4cccc5c(N(C)C)ccc(c45)C3=O)c(C)n(C(=O)c3ccc(Cl)cc3)c2c1
- Ratio IC50 [4]: 1.3
- IC50 [5]: 13.9 µM
- IC50 [6]: 13.9 µM
- IC50 [7]: 13.9 µM
- IC50 [8]: 13.9 µM
- IC50 [9]: 13.9 µM
- IC50 [10]: 13.9 µM
- IC50 [11]: 13.9 µM

Compound: CCNc1ccc2c3c(cccc13)C(=O)N(CC(O)Cn1c([N+](=O)[O-])cnc1C)C2=O (configuration not stated)
- IC50 [12]: 8.51 µM
- MIC [13]: 10 µM (≈ 4.23 µg/mL)
- MIC [14]: 2 µM (≈ 0.847 µg/mL)

Compound: CN(C)CCN1C(=O)c2cccc3cc(N)cc(c23)C1=O [AMONAFIDE]
- Activity [15]: 43.73%
- IC50 [16]: 2700 nM
- IC50 [17]: 2700 nM

Compound: O=NN(CCCl)C(=O)NC1CCCCC1 [LOMUSTINE]
- inhibition at 8 µM [1]: 64%
- T/C [18]: >279%
- T/C [19]: >240%
- inhibition at 8 µM [3]: 90%

Compound: CN(C)CCNc1ccc2c3c(cccc13)C(=O)N(c1ccc(S(=O)(=O)NC(=O)c3ccc(N4CCN(CC=C(c5ccccc5)c5ccccc5)CC4)cc3)cc1)C2=O
- IC50 [20]: 6.7 µM
- IC50 [21]: 6.7 µM
- IC50 [22]: 6.7 µM

Compound: CCN(N=O)C(=O)NCCN1C(=O)c2cccc3cccc(c23)C1=O
- T/C [23]: 140%
- inhibition at 8 µM [1]: 65%
- inhibition at 8 µM [3]: 60%
- T/C [24]: 134%

Compound: O=C1c2cccc3cccc(c23)C(=O)N1c1nc(-c2cc3cc(Cl)cc(Cl)c3oc2=O)cs1
- MIC [25]: 18.8 µg/mL (≈ 38 µM)
- MIC [26]: 18.8 µg/mL (≈ 38 µM)
- MIC [27]: 18.8 µg/mL (≈ 38 µM)
- MIC [28]: 18.8 µg/mL (≈ 38 µM)
- ΔTm [29]: 3.8 °C
- IC50 [30]: 190 nM

Compound: O=C1c2cccc3cc([N+](=O)[O-])cc(c23)C(=O)N1CCCCN(CCCl)CCCl
- IC50 [31]: 1900 nM
- IC50 [32]: 1900 nM
- IC50 [33]: 1900 nM
- IC50 [34]: 1900 nM

Compound: Cl.Cl.Cl.Cl.NCCCNCCCCNCCCNCC(=O)NCCCN1C(=O)c2cccc3cccc(c23)C1=O
- IC50 [35]: 2860 nM
- IC50 [36]: 2860 nM
- IC50 [37]: 2860 nM
- IC50 [38]: 2860 nM
- Activity [39]: 70.92%

Compound: COc1ccc(/C=N/N2C(=O)c3cccc4cccc(c34)C2=O)cc1OC
- MIC [40]: 62 µg/mL (≈ 172 µM)
- Kb [41]: 2 10^4/M
- MIC [42]: 62 µg/mL (≈ 172 µM)
- MIC [43]: 31 µg/mL (≈ 86 µM)

Reference: ChEMBL document CHEMBL5244223, “l,8-Naphthalimide based DNA intercalators and anticancer agents. A systematic review from 2007 to 2017” (Eur J Med Chem, 2018)
